{
  "source": "the supplement of paper PMC10307832",
  "experiment_in_all_cases": "relative viability (nuclei count vs DMSO), 5 days (fraction); higher = more cells survive",
  "key": {"Fedratinib + Pemetrexed": {"compound": "Cc1cnc(Nc2ccc(OCCN3CCCC3)cc2)nc1Nc1cccc(S(=O)(=O)NC(C)(C)C)c1 [Fedratinib] + Nc1nc2[nH]cc(CCc3ccc(C(=O)N[C@@H](CCC(=O)O)C(=O)O)cc3)c2c(=O)[nH]1 [Pemetrexed] (partner 0.2 µM)", "procedure,_shortened": "(§1)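 After 5 days of treatment, lung cancer cells in 1536-well plates were fixed and stained in a single step (final 0.05% Triton X-100, 1% formaldehyde, 1 ug/ml Hoechst) and their nuclei counted on 4× images. Treatment had been applied by pin tool the day after seeding as one drug alone or as a fixed anchor-drug dose with five library-drug doses (not always all listed) in √10 steps. Relative viability is the nuclei count of treated wells divided by that of vehicle wells, and values are medians of duplicate plates.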"}, "GW-2580 + Phenformin": {"compound": "COC1=CC=C(C=C1)COC2=C(C=C(C=C2)CC3=CN=C(N=C3N)N)OC [GW-2580] + N=C(N)NC(=N)NCCc1ccccc1 [Phenformin] (partner 250 µM)", "procedure,_shortened": "as §1"}, "GW-2580 + OSI-027": {"compound": "COC1=CC=C(C=C1)COC2=C(C=C(C=C2)CC3=CN=C(N=C3N)N)OC [GW-2580] + COc1cccc2cc(-c3nc([C@H]4CC[C@H](C(=O)O)CC4)n4ncnc(N)c34)[nH]c12 [OSI-027] (partner 0.5 µM)", "procedure,_shortened": "as §1"}, "GW-2580 + Tozasertib": {"compound": "COC1=CC=C(C=C1)COC2=C(C=C(C=C2)CC3=CN=C(N=C3N)N)OC [GW-2580] + Cc1cc(Nc2cc(N3CCN(C)CC3)nc(Sc3ccc(NC(=O)C4CC4)cc3)n2)n[nH]1 [Tozasertib] (partner 0.1 µM)", "procedure,_shortened": "as §1"}, "GW-2580 + Linsitinib": {"compound": "COC1=CC=C(C=C1)COC2=C(C=C(C=C2)CC3=CN=C(N=C3N)N)OC [GW-2580] + C[C@]1(O)C[C@@H](c2nc(-c3ccc4ccc(-c5ccccc5)nc4c3)c3c(N)nccn32)C1 [Linsitinib] (partner 1 µM)", "procedure,_shortened": "as §1"}},
  "data": [
    {"cell line": "HCC-15", "values": [
      {"measurement": "relative viability", "setting": "Fedratinib + Pemetrexed; first compound 0.1 µM", "value": 0.212},
      {"measurement": "relative viability", "setting": "Fedratinib + Pemetrexed; first compound 0.3162 µM", "value": 0.225},
      {"measurement": "relative viability", "setting": "Fedratinib + Pemetrexed; first compound 1 µM", "value": 0.202},
      {"measurement": "relative viability", "setting": "GW-2580 + Phenformin; first compound 0.08 µM", "value": 0.537},
      {"measurement": "relative viability", "setting": "GW-2580 + Phenformin; first compound 0.8 µM", "value": 0.486},
      {"measurement": "relative viability", "setting": "GW-2580 + Phenformin; first compound 2.53 µM", "value": 0.426},
      {"measurement": "relative viability", "setting": "GW-2580 + Phenformin; first compound 8 µM", "value": 0.515},
      {"measurement": "relative viability", "setting": "GW-2580 + OSI-027; first compound 0.08 µM", "value": 0.743},
      {"measurement": "relative viability", "setting": "GW-2580 + OSI-027; first compound 0.8 µM", "value": 0.787},
      {"measurement": "relative viability", "setting": "GW-2580 + OSI-027; first compound 2.53 µM", "value": 0.596},
      {"measurement": "relative viability", "setting": "GW-2580 + OSI-027; first compound 8 µM", "value": 0.656},
      {"measurement": "relative viability", "setting": "GW-2580 + Tozasertib; first compound 0.08 µM", "value": 0.489},
      {"measurement": "relative viability", "setting": "GW-2580 + Tozasertib; first compound 0.8 µM", "value": 0.562},
      {"measurement": "relative viability", "setting": "GW-2580 + Tozasertib; first compound 2.53 µM", "value": 0.615},
      {"measurement": "relative viability", "setting": "GW-2580 + Tozasertib; first compound 8 µM", "value": 0.222},
      {"measurement": "relative viability", "setting": "GW-2580 + Linsitinib; first compound 0.08 µM", "value": 0.989},
      {"measurement": "relative viability", "setting": "GW-2580 + Linsitinib; first compound 0.8 µM", "value": 1.02},
      {"measurement": "relative viability", "setting": "GW-2580 + Linsitinib; first compound 2.53 µM", "value": 0.834},
      {"measurement": "relative viability", "setting": "GW-2580 + Linsitinib; first compound 8 µM", "value": 0.785}
    ]},
    {"cell line": "EKVX", "values": [
      {"measurement": "relative viability", "setting": "Fedratinib + Pemetrexed; first compound 0.1 µM", "value": 0.377},
      {"measurement": "relative viability", "setting": "Fedratinib + Pemetrexed; first compound 0.3162 µM", "value": 0.431},
      {"measurement": "relative viability", "setting": "Fedratinib + Pemetrexed; first compound 1 µM", "value": 0.392},
      {"measurement": "relative viability", "setting": "GW-2580 + Phenformin; first compound 0.08 µM", "value": 0.244},
      {"measurement": "relative viability", "setting": "GW-2580 + Phenformin; first compound 0.8 µM", "value": 0.264},
      {"measurement": "relative viability", "setting": "GW-2580 + Phenformin; first compound 2.53 µM", "value": 0.212},
      {"measurement": "relative viability", "setting": "GW-2580 + Phenformin; first compound 8 µM", "value": 0.233},
      {"measurement": "relative viability", "setting": "GW-2580 + OSI-027; first compound 0.08 µM", "value": 0.692},
      {"measurement": "relative viability", "setting": "GW-2580 + OSI-027; first compound 0.8 µM", "value": 0.755},
      {"measurement": "relative viability", "setting": "GW-2580 + OSI-027; first compound 2.53 µM", "value": 0.73},
      {"measurement": "relative viability", "setting": "GW-2580 + OSI-027; first compound 8 µM", "value": 0.67},
      {"measurement": "relative viability", "setting": "GW-2580 + Tozasertib; first compound 0.08 µM", "value": 0.553},
      {"measurement": "relative viability", "setting": "GW-2580 + Tozasertib; first compound 0.8 µM", "value": 0.428},
      {"measurement": "relative viability", "setting": "GW-2580 + Tozasertib; first compound 2.53 µM", "value": 0.313},
      {"measurement": "relative viability", "setting": "GW-2580 + Tozasertib; first compound 8 µM", "value": 0.321},
      {"measurement": "relative viability", "setting": "GW-2580 + Linsitinib; first compound 0.08 µM", "value": 0.983},
      {"measurement": "relative viability", "setting": "GW-2580 + Linsitinib; first compound 0.8 µM", "value": 1.18},
      {"measurement": "relative viability", "setting": "GW-2580 + Linsitinib; first compound 2.53 µM", "value": 0.884},
      {"measurement": "relative viability", "setting": "GW-2580 + Linsitinib; first compound 8 µM", "value": 1.04}
    ]},
    {"cell line": "NCI-H2087", "values": [
      {"measurement": "relative viability", "setting": "Fedratinib + Pemetrexed; first compound 0.1 µM", "value": 0.739},
      {"measurement": "relative viability", "setting": "Fedratinib + Pemetrexed; first compound 0.3162 µM", "value": 0.651},
      {"measurement": "relative viability", "setting": "Fedratinib + Pemetrexed; first compound 1 µM", "value": 0.731},
      {"measurement": "relative viability", "setting": "GW-2580 + Phenformin; first compound 0.08 µM", "value": 0.526},
      {"measurement": "relative viability", "setting": "GW-2580 + Phenformin; first compound 0.8 µM", "value": 0.473},
      {"measurement": "relative viability", "setting": "GW-2580 + Phenformin; first compound 2.53 µM", "value": 0.352},
      {"measurement": "relative viability", "setting": "GW-2580 + Phenformin; first compound 8 µM", "value": 0.444},
      {"measurement": "relative viability", "setting": "GW-2580 + OSI-027; first compound 0.08 µM", "value": 0.681},
      {"measurement": "relative viability", "setting": "GW-2580 + OSI-027; first compound 0.8 µM", "value": 0.675},
      {"measurement": "relative viability", "setting": "GW-2580 + OSI-027; first compound 2.53 µM", "value": 0.564},
      {"measurement": "relative viability", "setting": "GW-2580 + OSI-027; first compound 8 µM", "value": 0.588},
      {"measurement": "relative viability", "setting": "GW-2580 + Tozasertib; first compound 0.08 µM", "value": 0.242},
      {"measurement": "relative viability", "setting": "GW-2580 + Tozasertib; first compound 0.8 µM", "value": 0.263},
      {"measurement": "relative viability", "setting": "GW-2580 + Tozasertib; first compound 2.53 µM", "value": 0.249},
      {"measurement": "relative viability", "setting": "GW-2580 + Tozasertib; first compound 8 µM", "value": 0.212},
      {"measurement": "relative viability", "setting": "GW-2580 + Linsitinib; first compound 0.08 µM", "value": 1.08},
      {"measurement": "relative viability", "setting": "GW-2580 + Linsitinib; first compound 0.8 µM", "value": 0.935},
      {"measurement": "relative viability", "setting": "GW-2580 + Linsitinib; first compound 2.53 µM", "value": 0.924},
      {"measurement": "relative viability", "setting": "GW-2580 + Linsitinib; first compound 8 µM", "value": 0.818}
    ]},
    {"cell line": "LK-2", "values": [
      {"measurement": "relative viability", "setting": "Fedratinib + Pemetrexed; first compound 0.1 µM", "value": 0.171},
      {"measurement": "relative viability", "setting": "Fedratinib + Pemetrexed; first compound 0.3162 µM", "value": 0.207},
      {"measurement": "relative viability", "setting": "Fedratinib + Pemetrexed; first compound 1 µM", "value": 0.233},
      {"measurement": "relative viability", "setting": "GW-2580 + Phenformin; first compound 0.08 µM", "value": 0.37},
      {"measurement": "relative viability", "setting": "GW-2580 + Phenformin; first compound 0.8 µM", "value": 0.544},
      {"measurement": "relative viability", "setting": "GW-2580 + Phenformin; first compound 2.53 µM", "value": 0.318},
      {"measurement": "relative viability", "setting": "GW-2580 + Phenformin; first compound 8 µM", "value": 0.391},
      {"measurement": "relative viability", "setting": "GW-2580 + OSI-027; first compound 0.08 µM", "value": 0.208},
      {"measurement": "relative viability", "setting": "GW-2580 + OSI-027; first compound 0.8 µM", "value": 0.19},
      {"measurement": "relative viability", "setting": "GW-2580 + OSI-027; first compound 2.53 µM", "value": 0.208},
      {"measurement": "relative viability", "setting": "GW-2580 + OSI-027; first compound 8 µM", "value": 0.189},
      {"measurement": "relative viability", "setting": "GW-2580 + Tozasertib; first compound 0.08 µM", "value": 0.173},
      {"measurement": "relative viability", "setting": "GW-2580 + Tozasertib; first compound 0.8 µM", "value": 0.166},
      {"measurement": "relative viability", "setting": "GW-2580 + Tozasertib; first compound 2.53 µM", "value": 0.192},
      {"measurement": "relative viability", "setting": "GW-2580 + Tozasertib; first compound 8 µM", "value": 0.171},
      {"measurement": "relative viability", "setting": "GW-2580 + Linsitinib; first compound 0.08 µM", "value": 0.558},
      {"measurement": "relative viability", "setting": "GW-2580 + Linsitinib; first compound 0.8 µM", "value": 0.573},
      {"measurement": "relative viability", "setting": "GW-2580 + Linsitinib; first compound 2.53 µM", "value": 0.23},
      {"measurement": "relative viability", "setting": "GW-2580 + Linsitinib; first compound 8 µM", "value": 0.534}
    ]}
  ]
}
